Experiments:
dermcidin (DCD) = molecular target: T1, dermcidin (DCD) (Homo sapiens, UniProt P81605); assay: Immunoprecipitation with IAF probe and LC-MS/MS target identification; assay type: binding; details: HCT-116 cell lysates, iodoacetamide treatment
T1 construct: endogenous in cells; host or cells: HCT-116 cell lysate
T1 sequence (P81605 20-110): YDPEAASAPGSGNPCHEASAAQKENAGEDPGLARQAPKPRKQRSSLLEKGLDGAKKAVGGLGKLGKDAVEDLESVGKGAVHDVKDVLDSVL
Protocol: Using established protocols,^13 HCT-116 cell lysates were treated for 8 h with probe 13 and immunoprecipitated with resins bearing a covalently-attached anti-IAF mAb.^14 Over multiple repetitions, a series of proteins ranging from 30-250 kDa were obtained in a manner dependent on the concentration probe 13 (FIG. 5A). […] Trypsin digestion coupled with LC-MS/MS analyses was then applied to identify the proteins in the more abundant bands. […] In addition to peptides from GADPH, peptides were also found in the 50 kDa band (b1, FIG. 5A) that corresponded to the 30 aa PIF core, 13 aa propeptide, and 47 aa DCD-1 peptide region of dermcidin (DCD) (FIG. 5B).
Interested if this was the case in this experimentation, the immunoprecipitated fractions were treated with 5 mM iodoacetamide prior to gel analysis. As indicated (Lane L1, FIG. 5C), a low molecular weight band corresponding to DCD appeared.
An 1 mg/mL stock of probe 14a/14b in DMSO solution was added to 1 mL of cell lysate containing ˜1 mg/mL in net protein to provide a net concentration of 3 μM 14a/14b or 30 μM 14a/14b. […]
Silver Stained bands were excised from the polyacrylamide gel and destained. […] General procedure was using in-gel trypsin digest and then the trypsin-digested peptides were analyzed by liquid chromatography LC-MS/MS with electrospray ionization. […]

HCT-116 cells [1] = assay: Confocal microscopy subcellular localization; assay type: cell-based, human; details: confocal imaging with counterstains
Protocol: Confocal studies were conducted on a LSM 710 inverted confocal microscope (Zeiss) with scanning module with 3 detection channels, Plan-Apochromat 63×/1.4 na objective, diode laser (405 nm, CW pulsed, 30 mW), Ar-laser (458 nm, 488 nm, 514 nm, 25 mW), HeNe-laser (543 nm, 1 mW) and HeNe-laser (633 nm, 5 mW). For all procedures, cells were seeded 24 h prior to treatment, to allow for adequate attachment to the well or flask bottom. Cells were plated in glass-bottom dishes (MatTek Corporation) for microscopic analyses at 1×10^5 cells/mL. Compounds were added to cells under 1 mL of media from […] such that the DMSO content remained under 0.1%. […]
Colocalization studies were conducted by treating cells (HCT-116 or MALME-3M) at a density of 1×10^5 cells/cm^2 in a 35 mm glass-bottom dish (MatTek Corporation). […] After 30 min, cells were washed PBS (4×1 mL) and immediately analyzed by confocal microscope. […] The localization of seriniquinone (1) was acquired by red fluorescence with emission at 550-631 nm, while the ER-tracker was acquired by blue florescence with emission at 406-450 nm. […] After 15 min, cells were washed PBS (4×1 mL) and immediately analyzed by confocal microscope. […] The localization of seriniquinone (1) was acquired by red fluorescence with emission at 550-631 nm, while the ER-tracker was acquired by blue florescence with emission at 415-530 nm.

HCT-116 cells [2] = assay: Cytotoxicity analysis (MTT/MTS) in HCT-116 colon carcinoma cells; assay type: cell-based, human; details: Homo sapiens; HCT-116 cells; read-out: IC50
Text: Fortunately, 1 was fluorescent with excitation maxima at 250 nm (ε=20,800 cm^−1M^−1), 289 nm (ε=24,000 cm^−1M^−1) and 342 nm (ε=6900 cm^−1M^−1) and a broad emission from 490-680 nm. Using confocal microscopy, red and green fluorescence from 1 appeared in HCT-116 cells within minutes of addition (FIG. 3A). […] Time course confocal imaging studies were then combined with conventional activity MTT assays^6 to provide a detailed correlation between cellular localization and cytostatic activity.
HCT-116 colon carcinoma cells were plated in 96-well plates at 2.5×10^4 cells/well. After 24 h, the cultures were treated with a single concentration seriniquinone (1) within the range of 0.02-20.0 μM, etoposide (positive control) in the range of 0.05-50 μM or 1% DMSO (negative control). The cells were incubated for either 24 h, 48 h or 72 h. At the end of the incubation period, cultures were added with 3-(4,5-dimethylthiazol-2-yl)-5-(3-carboxymethoxyphenyl)-2-(4-sulfophenyl)-2H-tetrazolium (MTS) for 3 h. Cell viability was quantified by the ability of living cells to reduce the yellow MTS dye to a purple formazan product. Time course experiments were also conducted in HCT-116 cells. Cells were exposed to 1 over short periods (1 h, 3 h, 6 h, and 9 h) followed by incubation in drug-free media to complete a total of 24 h incubation before addition of MTS.

DCD-1L = assay: Covalent labeling of DCD-1L peptide (fluorescent band on SDS-PAGE); assay type: binding, human; details: 50 μM, PBS pH 7.2, 5% DMSO, 23° C., 24 h (FIG. 5E)
Text: FIGS. 5A-5E: Seriniquinone (1) targets dermcidin (DCD). […] Sequence listing (FIG. 5B): […] (SEQ ID NO:3); […] (SEQ ID NO:4).
The reactivity between 1 and DCD was then examined. […] These studies now provided initial support for the formation of a unique trimeric covalent adduct, compound 15, between 1, DCD and targeted proteins such as GADPH.

protein target identified by immunoprecipitation (dermcidin (DCD)): DCD was indeed a primary target
Structure (SMILES): CN(C)c1ccc2c(CC(=O)NCCCCCCNC(=O)CCc3ccc4c(=O)c5c(sc6c(=O)c7ccccc7c(=O)c65)c(=O)c4c3)cc(=O)oc2c1 [Probe 13, N-(6-(2-(7-(dimethylamino)-2-oxo-2H-chromen-4-yl)acetamido)hexyl)-3-(5,7,12,13-tetraoxo-5,7,12,13-tetrahydrodinaphtho[2,3-b:2′,3′-d]thiophen-3-yl)propanamide]
subcellular localization (HCT-116 cells [1]): rapid uptake in the ER followed by transport into autophagosomes
IC50 (HCT-116 cells [2]): 250 ± 80 nM
fluorescent labeling of DCD-1L fragment (DCD-1L): fluorescent bands corresponding to DCD-1L

Reference: US9481662B2, “Seriniquinones, melanoma-specific anticancer agents” (The Regents of the University of California, priority 2012, dated 2016)
